Experimental data: patent US20230382949A1 (HEPTARES THERAPEUTICS LIMITED, priority 2020, published 2023)
Starred links: 1 amine or outer side, 2 acyl side, 3 side chain; linkers in the order of their positions; H or OH if unused. Non-standard residues stand in square brackets, D forms with d. Residues, ends and D or L forms follow the SMILES beside them. *: point of attachment. Ala(piperidin-4-yl) = O=C([C@H](CC1CCN([*:3])CC1)N[*:1])[*:2]; Malonyl(2,2-Me2,histaminyl) = CC(C)(C(=O)NCCc1cnc[nH]1)C(=O)*; dBip = N[C@H](Cc1ccc(-c2ccccc2)cc1)C(=O)O; Oic = O=C(O)[C@@H]1C[C@@H]2CCCC[C@@H]2N1; Phe(4-Br) = N[C@@H](Cc1ccc(Br)cc1)C(=O)O; X4 = CC(C)(C(=O)NCCCc1cnc[nH]1)C(=O)*; hArg = N=C(N)NCCCC[C@H](N)C(=O)O; Aib = CC(C)(N)C(=O)O

Tests used:
[1] = target: T1, human Apelin receptor (Homo sapiens, UniProt P35414); experiment: cAMP accumulation assay (HTRF), functional agonism of human Apelin receptors; type: cell-based; settings: CHO cells stably expressing the human Apelin receptor, 3 uM forskolin; for Emax: CHO, Human Apelin agonist cAMP assay; for EC50: pEC50, Human Apelin agonist cAMP assay
T1 sequence (P35414 1-380): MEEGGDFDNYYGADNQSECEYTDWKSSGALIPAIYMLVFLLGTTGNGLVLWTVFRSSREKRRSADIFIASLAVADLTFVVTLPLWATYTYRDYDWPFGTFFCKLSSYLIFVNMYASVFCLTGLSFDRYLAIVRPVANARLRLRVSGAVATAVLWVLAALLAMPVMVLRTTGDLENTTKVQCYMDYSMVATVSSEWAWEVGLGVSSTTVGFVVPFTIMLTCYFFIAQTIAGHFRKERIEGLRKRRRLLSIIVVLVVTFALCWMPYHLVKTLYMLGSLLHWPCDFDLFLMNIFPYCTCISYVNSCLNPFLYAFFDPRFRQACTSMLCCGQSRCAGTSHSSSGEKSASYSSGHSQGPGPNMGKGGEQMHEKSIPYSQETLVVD
Text: cAMP functional assay. cAMP production was quantified using the Homogeneous Time-Resolved Fluorescence (HTRF) cAMP dynamic-2 assay (Cisbio, France).

[2] = target: T2, human Apelin receptor (Homo sapiens, UniProt P35414); experiment: β-arrestin accumulation assay, functional agonism of human Apelin receptors; type: cell-based
T2 construct: host or cells: CHO-K1 cells
How it was run: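 After 16 h at 37° C., cells were exposed to increasing agonist concentrations in serum-free medium for 90 min at 37° C. Detection reagent added for 60 min in the dark; receptor activation read by fluorescence and EC50 derived from concentration-response curves.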
T2 sequence (P32121 whole entry partner, one chain of several): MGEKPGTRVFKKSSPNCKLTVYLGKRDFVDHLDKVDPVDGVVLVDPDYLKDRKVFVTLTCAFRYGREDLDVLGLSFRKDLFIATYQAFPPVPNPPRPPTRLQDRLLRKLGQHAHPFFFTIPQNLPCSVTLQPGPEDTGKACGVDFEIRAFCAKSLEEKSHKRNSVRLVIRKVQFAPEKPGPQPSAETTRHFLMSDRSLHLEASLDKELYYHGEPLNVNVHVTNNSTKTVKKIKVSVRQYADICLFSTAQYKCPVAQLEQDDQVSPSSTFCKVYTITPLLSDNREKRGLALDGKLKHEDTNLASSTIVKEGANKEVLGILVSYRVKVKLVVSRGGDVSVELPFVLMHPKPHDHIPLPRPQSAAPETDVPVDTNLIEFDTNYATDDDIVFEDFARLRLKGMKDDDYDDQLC

Row | SMILES | Emax [1] | EC50 [1] | EC50 [2]
1 | CC(C)C[C@H](NC(=O)[C@H](CCCNC(=N)N)NC(=O)[C@@H]1CCCN1C(=O)[C@@H](CCCNC(=N)N)NC(=O)[C@H](CCC(N)=O)NC(=O)[C@@H](CCCNC(=N)N)NC(=O)C(C)(C)C(=O)NCCc1cnc[nH]1)C(=O)NC(C)(C)C(=O)N[C@@H](Cc1ccc(Br)cc1)C(=O)N[C@@H](CC1CCNCC1)C(=O)NCC(=O)N1[C@H](C(=O)N[C@@H](Cc2ccccc2)C(=O)N2CCC[C@H]2C(=O)N[C@H](Cc2ccc(-c3ccccc3)cc2)C(=O)O)C[C@@H]2CCCC[C@@H]21 [Example 35] ({Malonyl(2,2-Me2,histaminyl)}-[dR]Q[dR]PRL[Aib][Phe(4-Br)][Ala(piperidin-4-yl)]G[Oic]FP[dBip]-OH) | 35.3% | 63.1 nM | > 10000 nM
2 | CC(C)C[C@H](NC(=O)[C@@H](CCCNC(=N)N)NC(=O)[C@@H]1CCCN1C(=O)[C@H](CCCCNC(=N)N)NC(=O)[C@H](CCC(N)=O)NC(=O)[C@@H](CCCNC(=N)N)NC(=O)C(C)(C)C(=O)NCCCc1cnc[nH]1)C(=O)NC(C)(C)C(=O)N[C@@H](Cc1c[nH]cn1)C(=O)N[C@@H](CC1CCNCC1)C(=O)NCC(=O)N1[C@H](C(=O)N[C@@H](Cc2ccc(Br)cc2)C(=O)N2CCC[C@H]2C(=O)N[C@H](Cc2ccc(-c3ccccc3)cc2)C(=O)O)C[C@@H]2CCCC[C@@H]21 [Example 36] (X4-[dR]Q[hArg]P[dR]L[Aib]H[Ala(piperidin-4-yl)]G[Oic][Phe(4-Br)]P[dBip]-OH) | 55.7% | 5.01 nM | > 100000 nM
3 | CC(C)C[C@H](NC(=O)[C@@H](CCCNC(=N)N)NC(=O)[C@@H]1CCCN1C(=O)[C@H](CCCCNC(=N)N)NC(=O)[C@H](CCC(N)=O)NC(=O)C(C)(C)C(=O)NCCc1cnc[nH]1)C(=O)N[C@H](C)C(=O)N[C@@H](Cc1c[nH]cn1)C(=O)N[C@@H](CC1CCNCC1)C(=O)NCC(=O)N1[C@H](C(=O)N[C@@H](Cc2ccc(Br)cc2)C(=O)N2CCC[C@H]2C(=O)N[C@H](Cc2ccc(-c3ccccc3)cc2)C(=O)O)C[C@@H]2CCCC[C@@H]21 [Example 38] ({Malonyl(2,2-Me2,histaminyl)}-Q[hArg]P[dR]L[dA]H[Ala(piperidin-4-yl)]G[Oic][Phe(4-Br)]P[dBip]-OH) | 27.9% | 31.6 nM | > 10000 nM
4 | CC(C)C[C@H](NC(=O)[C@@H](CCCNC(=N)N)NC(=O)[C@@H]1CCCN1C(=O)[C@H](CCCCNC(=N)N)NC(=O)[C@H](CCC(N)=O)NC(=O)C(C)(C)C(=O)NCCc1cnc[nH]1)C(=O)NC(C)(C)C(=O)N[C@@H](Cc1c[nH]cn1)C(=O)N[C@@H](CC1CCNCC1)C(=O)NCC(=O)N1[C@H](C(=O)N[C@@H](Cc2ccc(Br)cc2)C(=O)N2CCC[C@H]2C(=O)N[C@H](Cc2ccc(-c3ccccc3)cc2)C(=O)O)C[C@@H]2CCCC[C@@H]21 [Example 39] ({Malonyl(2,2-Me2,histaminyl)}-Q[hArg]P[dR]L[Aib]H[Ala(piperidin-4-yl)]G[Oic][Phe(4-Br)]P[dBip]-OH) | 62.1% | 31.6 nM | > 10000 nM
5 | CC(C)C[C@H](NC(=O)[C@H](CCCNC(=N)N)NC(=O)[C@@H]1CCCN1C(=O)[C@@H](CCCNC(=N)N)NC(=O)[C@H](CCC(N)=O)NC(=O)C(C)(C)C(=O)NCCc1cnc[nH]1)C(=O)NC(C)(C)C(=O)N[C@@H](Cc1c[nH]cn1)C(=O)N[C@@H](CC1CCNCC1)C(=O)NCC(=O)N1[C@H](C(=O)N[C@@H](Cc2ccc(Br)cc2)C(=O)N2CCC[C@H]2C(=O)N[C@H](Cc2ccc(-c3ccccc3)cc2)C(=O)O)C[C@@H]2CCCC[C@@H]21 [Example 40] ({Malonyl(2,2-Me2,histaminyl)}-Q[dR]PRL[Aib]H[Ala(piperidin-4-yl)]G[Oic][Phe(4-Br)]P[dBip]-OH) | 84.8% | 25.1 nM | > 10000 nM
